Consider 26 compounds from patent US12668571B2, “Substituted 3-amino-4-methylbenzenesulfonamides as small molecule inhibitors of ubiquitin-specific protease 28” (Dana-Farber Cancer Institute, Inc., priority 2020, dated 2026).

Assay [1] addresses T1, USP28 (Homo sapiens, UniProt Q96RU2).
T1 sequence (Q96RU2 1-1077): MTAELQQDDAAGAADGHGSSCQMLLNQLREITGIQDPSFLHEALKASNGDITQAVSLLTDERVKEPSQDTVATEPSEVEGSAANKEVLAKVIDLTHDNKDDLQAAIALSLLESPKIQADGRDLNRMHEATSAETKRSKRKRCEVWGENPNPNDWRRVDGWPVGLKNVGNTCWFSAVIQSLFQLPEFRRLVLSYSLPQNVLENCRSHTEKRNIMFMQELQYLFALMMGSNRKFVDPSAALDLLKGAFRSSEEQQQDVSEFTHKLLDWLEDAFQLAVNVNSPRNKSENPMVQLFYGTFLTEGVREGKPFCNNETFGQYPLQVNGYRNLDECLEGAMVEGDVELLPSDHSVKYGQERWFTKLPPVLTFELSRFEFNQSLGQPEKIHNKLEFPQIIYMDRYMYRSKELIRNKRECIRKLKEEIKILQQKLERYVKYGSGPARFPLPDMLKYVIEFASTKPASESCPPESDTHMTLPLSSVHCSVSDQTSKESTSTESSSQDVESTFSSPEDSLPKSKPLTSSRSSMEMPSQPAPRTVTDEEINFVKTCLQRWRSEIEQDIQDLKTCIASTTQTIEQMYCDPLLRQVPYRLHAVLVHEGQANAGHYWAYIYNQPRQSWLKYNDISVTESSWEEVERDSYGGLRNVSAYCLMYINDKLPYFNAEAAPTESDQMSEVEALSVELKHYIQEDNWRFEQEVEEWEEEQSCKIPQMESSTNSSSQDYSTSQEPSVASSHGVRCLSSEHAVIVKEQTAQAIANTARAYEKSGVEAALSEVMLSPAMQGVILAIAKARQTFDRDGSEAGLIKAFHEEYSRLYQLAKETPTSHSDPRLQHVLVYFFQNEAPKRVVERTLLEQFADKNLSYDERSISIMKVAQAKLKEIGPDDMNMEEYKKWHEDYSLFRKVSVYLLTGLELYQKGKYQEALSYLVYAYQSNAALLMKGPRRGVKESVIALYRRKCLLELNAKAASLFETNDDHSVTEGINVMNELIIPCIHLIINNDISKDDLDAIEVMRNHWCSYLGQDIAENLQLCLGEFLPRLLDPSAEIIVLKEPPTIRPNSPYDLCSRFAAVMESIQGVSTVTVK
As to the kind of experiment: Competitive activity-based protein profiling (target engagement, Ub-VME probe, Western blot). Type of assay: binding. The note with it: K562 cells lysed, treated with compound for 1 h, then incubated with Ub-VME. As for the experimental part: K562 cells were lysed and treated with indicated concentrations of compound 1 for 1 h followed by incubation with Ub-VME. Ub-VME covalently modifies USP28, resulting in higher MW band observed by Western blot.
Cells were pelleted, washed with PBS buffer, lysed on ice (20 mM Tris pH 8, 150 mM NaCl, 1% NP-40, 10% glycerol, 1 mM TCEP, phosphatase inhibitor cocktails (Sigma P5726 and Calbiochem 524624), and protease inhibitors (pepstatin, leupeptin, PMSF, and aprotinin), and clarified by centrifugation. Protein content was quantified by BCA and diluted to 2 mg/mL in lysis buffer. Compounds were added at desired concentrations and incubated at room temperature for […]. Samples were then supplemented with 2 uM […] and incubated at room temperature with shaking for 15 minutes. Reactions were quenched with 4×LDS sample buffer (Thermo Fisher B0007) supplemented with 10% BME, vortexed vigorously, and heated to 95° C. for 5 minutes. Samples were resolved by SDS-PAGE and analyzed by Western blot with the indicated antibodies.
On the technique in general: A western blot detects proteins with antibodies after separation by electrophoresis.

Assay [2] concerns the target T1, USP28. As to the kind of experiment: Ubiquitin-Rhodamine110 assay. The following applies: USP28 at 1 nM, 30 minutes pre-incubation at room temperature, Ubiquitin-Rho110 substrate 125 nM. It is filed as biochemical. On the procedure: USP28 (at 1 nM) was pre-incubated with different concentrations of inhibitors or DMSO as a control in 50 mM Tris pH 8, 50 mM NaCl, 0.002% Tween-20, 5 mM DTT. Compounds and protein were incubated for 30 minutes at room temperature prior to the addition of Ubiquitin-Rho110 (Boston Biochem) substrate for a final concentration of 125 nM. The initial rate of the reaction was measured by collecting fluorescence data at one-minute interval over 30-minute period using a Clariostar® fluorescence plate reader at excitation and emission wavelength of 485 nm and 535 nm, respectively. The calculated initial rate values were plotted against inhibitor concentrations to determine IC50s. All the experimental data were plotted using GraphPad Prism®.

By IC50 is commonly meant the point on the concentration scale where inhibition reaches its midpoint. On to `Cc1ccc(S(=O)(=O)N(C)C)cc1NC(=O)Cc1ccc(Cl)c(Cl)c1` [Compound 1], for which the “labeling of USP28 by covalent Ub-VME probe (Western blot, FIG. 2)” value at USP28 [1] is reported as “prevents labeling of USP28 by the covalent Ub-VME probe”. Moreover, the IC50 at USP28 [2] is under 1 µM.

On to `Cc1ccc(S(=O)(=O)N(C)C)cc1NC(=O)Cc1ccccc1` [Compound 2], for which the half-maximal inhibitory concentration (IC50) against USP28 [2] is 1 to 10 µM. On the same count and under the same terms, with `Cc1ccc(S(=O)(=O)N(C)C)cc1NC(=O)Cc1cccc(C(F)(F)F)c1` [Compound 3] the figure was 1 to 10 µM; with `Cc1ccc(S(=O)(=O)N(C)C)cc1NC(=O)Cc1ccc([N+](=O)[O-])cc1` [Compound 4], 10 to 100 µM. On to `Cc1ccc(S(=O)(=O)N(C)C)cc1NC(=O)Cc1ccc(O)cc1` [Compound 5], for which the IC50 at USP28 [2] was over 100 µM. Consider `CS(=O)(=O)c1cccc(NC(=O)Cc2ccc(Cl)c(Cl)c2)c1` [Compound 6], for which the IC50 against USP28 [2] lay in the range of 10 to 100 µM. The same measure, in the same setting: with `Cc1ccc(S(=O)(=O)N(C)C)cc1NC(=O)CCc1ccccc1` [Compound 7] the figure was over 100 µM; with `CCN(CC)S(=O)(=O)c1cccc(NC(=O)Cc2ccc(Cl)c(Cl)c2)c1` [Compound 8], 1 to 10 µM; with `Cc1ccc(S(=O)(=O)N(C)C)cc1NC(=O)Cc1ccc(-c2ccccc2)cc1` [Compound 9], over 100 µM. The same measure, in the same setting: with `Cc1ccc(S(=O)(=O)N(C)C)cc1NC(=O)CN1CCN(C)CC1` [Compound 10] the figure was 1 to 10 µM; with `Cc1ccc(S(=O)(=O)N2CCCCC2)cc1NC(=O)Cc1ccc(Cl)c(Cl)c1` [Compound 11], under 1 µM; with `Cc1ccc(S(=O)(=O)Nc2ccccc2)cc1NC(=O)Cc1ccc(Cl)c(Cl)c1` [Compound 12], under 1 µM. On the same count and under the same terms, with `CN(C)S(=O)(=O)c1cccc(NC(=O)Cc2ccc(Cl)c(Cl)c2)c1` [Compound 13] the figure was 10 to 100 µM; with `Cc1ccc(S(=O)(=O)NCc2ccccc2)cc1NC(=O)Cc1ccc(Cl)c(Cl)c1` [Compound 14], under 1 µM.

For `Cc1ccc(S(=O)(=O)Nc2ccc(N3CCN(C)CC3)cc2)cc1NC(=O)Cc1ccc(Cl)c(Cl)c1` [Compound 15], the IC50 at USP28 [2] is under 1 µM.

As to `CN(C)S(=O)(=O)c1ccc(Cl)c(NC(=O)Cc2ccc(Cl)c(Cl)c2)c1` [Compound 16], the IC50 on USP28 [2] is under 1 µM. Still for that read-out and setting: with `CCc1ccc(S(=O)(=O)N(C)C)cc1NC(=O)Cc1ccc(Cl)c(Cl)c1` [Compound 17] the figure was 1 to 10 µM; with `CN(C)S(=O)(=O)c1ccc(OC(F)(F)F)c(NC(=O)Cc2ccc(Cl)c(Cl)c2)c1` [Compound 18], 10 to 100 µM. Still for that read-out and setting: the same measure for `CN(C)S(=O)(=O)c1ccc(NCc2ccccc2)c(NC(=O)Cc2ccc(Cl)c(Cl)c2)c1` [Compound 19]: over 100 µM; for `Cc1ccc(S(=O)(=O)N(C)C)cc1C(=O)NCc1cccc(Cl)c1` [Compound 20]: under 1 µM; for `Cc1ccc(S(=O)(=O)N(C)C)cc1C(=O)NCc1ccc(Cl)c(Cl)c1` [Compound 21]: under 1 µM. The same measure, in the same setting: the same measure for `Cc1ccc(C(=O)NCc2ccccc2)cc1NC(=O)Cc1ccc(Cl)c(Cl)c1` [Compound 22]: 1 to 10 µM; for `Cc1ccc(S(=O)(=O)Nc2ccccc2)cc1NC(=O)Cc1ccc2ccccc2c1` [Compound 23]: under 1 µM; for `Cc1ccc(S(=O)(=O)NCc2ccccc2)cc1NC(=O)c1ccc(Cl)c(Cl)c1` [Compound 24]: under 1 µM.

Consider `CN(C)S(=O)(=O)c1ccc2[nH]c(Cc3ccc(Cl)c(Cl)c3)nc2c1` [Compound 27], for which the IC50 on USP28 [2] was over 100 µM. On the same count and under the same terms, the same measure for `Cc1ccc(S(=O)(=O)Nc2ccc(-n3ccnc3)cc2)cc1NC(=O)Cc1ccc(Cl)c(Cl)c1` [Compound 29]: 1 to 10 µM.
